{"source": "ChEMBL document CHEMBL1201862", "about": "“PubChem BioAssay data set” (2004)", "key": {"[1]": {"system": "Vero", "assay": "cells", "assay_type": "functional, cell-based", "conditions": "Chlorocebus sabaeus"}, "[2]": {"system": "Vero", "assay": "cells", "assay_type": "functional", "conditions": "Chlorocebus sabaeus"}, "[3]": {"target": "T1, CAAX prenyl protease 2 (Saccharomyces cerevisiae S288c, UniProt Q03530)", "T1 sequence (Q03530 whole entry)": "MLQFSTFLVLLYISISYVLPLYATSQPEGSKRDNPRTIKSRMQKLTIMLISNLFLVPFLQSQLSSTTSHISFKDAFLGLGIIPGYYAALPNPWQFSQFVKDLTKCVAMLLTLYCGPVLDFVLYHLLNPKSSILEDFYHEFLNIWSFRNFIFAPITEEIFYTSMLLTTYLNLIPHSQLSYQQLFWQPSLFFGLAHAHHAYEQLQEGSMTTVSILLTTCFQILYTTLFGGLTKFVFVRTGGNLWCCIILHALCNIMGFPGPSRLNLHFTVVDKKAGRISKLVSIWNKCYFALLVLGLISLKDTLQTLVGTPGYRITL", "assay_type": "biochemical"}, "[4]": {"target": "T2, CAAX prenyl protease 2 (Homo sapiens, UniProt Q9Y256)", "T2 sequence (Q9Y256 whole entry)": "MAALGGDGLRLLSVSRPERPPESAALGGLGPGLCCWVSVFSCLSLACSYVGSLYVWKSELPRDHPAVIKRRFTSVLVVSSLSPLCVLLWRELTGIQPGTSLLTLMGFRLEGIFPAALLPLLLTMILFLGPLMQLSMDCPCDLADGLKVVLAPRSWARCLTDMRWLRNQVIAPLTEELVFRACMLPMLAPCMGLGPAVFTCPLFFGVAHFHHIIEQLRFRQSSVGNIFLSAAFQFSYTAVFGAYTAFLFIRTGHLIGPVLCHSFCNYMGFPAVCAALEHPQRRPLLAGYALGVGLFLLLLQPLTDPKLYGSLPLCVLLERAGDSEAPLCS", "assay": "inhibition of Ras-converting CAAX protease Rce1 – biochemical, yeast membranes, quenched-peptide fluorescence, cherry-pick, dose response (AID 588849)"}, "[5]": {"assay": "decrease of insulin promoter-GFP reporter – imaging, high-content screening, mouse beta cells (AID 1628)", "assay_type": "functional", "conditions": "MIN6"}, "[6]": {"assay": "MIN6 cell viability loss – mouse insulinoma, cytotoxicity control, dose response (AID 2122);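 further: confirmatory high-throughput counterscreen run to flag cytotoxic compounds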", "assay_type": "functional"}, "[7]": {"assay": "reduction of Shn3 3'UTR-driven luciferase in osteoblasts – cell-based, Clone20 osteoblasts, firefly luciferase, cherry-picked, dose response (AID 624132)", "assay_type": "functional"}, "[8]": {"assay": "non-specific 3'UTR reporter inhibition in Clone20-Shn3RL – cell-based, Renilla luciferase, cherry-picked, counter-screen for Shn3 inhibitor project, dose response (AID 624133)", "assay_type": "functional"}, "[9]": {"target": "Protein Wnt-3a (Mus musculus, UniProt P27467)", "sequence (P27467 whole entry)": "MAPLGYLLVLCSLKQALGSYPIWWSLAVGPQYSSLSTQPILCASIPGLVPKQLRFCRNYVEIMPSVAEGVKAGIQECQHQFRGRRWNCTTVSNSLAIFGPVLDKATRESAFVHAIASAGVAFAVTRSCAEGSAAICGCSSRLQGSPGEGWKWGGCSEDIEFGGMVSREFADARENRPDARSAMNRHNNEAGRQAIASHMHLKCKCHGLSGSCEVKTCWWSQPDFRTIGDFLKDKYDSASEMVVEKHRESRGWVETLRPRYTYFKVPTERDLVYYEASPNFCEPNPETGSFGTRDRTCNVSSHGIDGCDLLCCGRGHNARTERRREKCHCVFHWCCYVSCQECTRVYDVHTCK", "assay": "antagonism of Wnt3a pathway luciferase reporter – Wnt-LIGHT cells, luminescence, selectivity assay for Gli-SUFU antagonist project, dose response (AID 651570);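 further: Wnt-LIGHT reporter cells stimulated with conditioned medium from Wnt3a-producing cells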", "assay_type": "functional", "conditions": "read-out: IC50_Mean"}, "[10]": {"target": "Glucose-6-phosphate 1-dehydrogenase (Homo sapiens, UniProt P11413)", "sequence (P11413 whole entry)": "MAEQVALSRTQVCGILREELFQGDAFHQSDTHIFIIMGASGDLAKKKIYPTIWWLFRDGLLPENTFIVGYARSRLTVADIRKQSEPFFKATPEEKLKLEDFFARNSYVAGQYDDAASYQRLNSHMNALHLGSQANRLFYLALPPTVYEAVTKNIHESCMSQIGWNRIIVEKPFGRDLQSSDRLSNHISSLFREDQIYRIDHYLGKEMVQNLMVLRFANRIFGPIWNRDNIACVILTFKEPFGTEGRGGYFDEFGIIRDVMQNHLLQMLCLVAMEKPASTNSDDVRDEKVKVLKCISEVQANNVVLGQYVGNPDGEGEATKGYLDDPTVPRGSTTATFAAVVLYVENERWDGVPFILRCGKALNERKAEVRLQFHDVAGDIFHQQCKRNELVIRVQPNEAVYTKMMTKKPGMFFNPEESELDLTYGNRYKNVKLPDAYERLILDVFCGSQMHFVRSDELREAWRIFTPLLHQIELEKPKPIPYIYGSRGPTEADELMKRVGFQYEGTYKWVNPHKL", "assay": "inhibition of Homo sapiens G6PD, dose series – biochemical, fluorescence, selectivity assay for P. falciparum G6PD inhibitor project, dose response (AID 504792)", "assay_type": "functional"}, "[11]": {"target": "T3, Leucine aminopeptidase (Plasmodium falciparum 3D7, UniProt Q8IL11)", "T3 sequence (Q8IL11 whole entry)": "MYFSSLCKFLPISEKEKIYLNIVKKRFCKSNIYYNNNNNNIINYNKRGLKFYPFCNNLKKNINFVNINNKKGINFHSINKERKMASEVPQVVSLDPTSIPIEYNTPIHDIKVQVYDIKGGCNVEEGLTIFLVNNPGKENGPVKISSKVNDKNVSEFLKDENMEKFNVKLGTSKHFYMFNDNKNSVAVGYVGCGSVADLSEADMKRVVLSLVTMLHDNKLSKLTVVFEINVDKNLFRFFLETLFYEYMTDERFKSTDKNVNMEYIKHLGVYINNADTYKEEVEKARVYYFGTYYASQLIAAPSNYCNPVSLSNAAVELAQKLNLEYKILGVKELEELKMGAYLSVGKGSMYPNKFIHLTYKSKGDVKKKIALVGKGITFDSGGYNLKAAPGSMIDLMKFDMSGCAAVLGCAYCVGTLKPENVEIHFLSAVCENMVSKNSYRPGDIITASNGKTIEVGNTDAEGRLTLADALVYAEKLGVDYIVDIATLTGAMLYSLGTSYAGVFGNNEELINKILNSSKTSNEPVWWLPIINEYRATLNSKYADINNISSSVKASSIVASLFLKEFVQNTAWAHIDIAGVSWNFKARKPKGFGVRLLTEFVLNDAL", "assay": "P. falciparum M17LAP inhibitors, primary screen, biochemical, fluorogenic H-Leu-NHMec substrate, 1536-well (AID 1619)", "assay_type": "functional"}, "[12]": {"assay": "viability of uninfected HEp-2 cells – cell-based, HTS, cytotoxicity control for RSV inhibitor project, dose response (AID 2410)", "assay_type": "functional", "conditions": "human respiratory syncytial virus"}, "[13]": {"target": "T4, Protein skinhead-1 (Caenorhabditis elegans, UniProt P34707)", "T4 sequence (P34707 whole entry)": "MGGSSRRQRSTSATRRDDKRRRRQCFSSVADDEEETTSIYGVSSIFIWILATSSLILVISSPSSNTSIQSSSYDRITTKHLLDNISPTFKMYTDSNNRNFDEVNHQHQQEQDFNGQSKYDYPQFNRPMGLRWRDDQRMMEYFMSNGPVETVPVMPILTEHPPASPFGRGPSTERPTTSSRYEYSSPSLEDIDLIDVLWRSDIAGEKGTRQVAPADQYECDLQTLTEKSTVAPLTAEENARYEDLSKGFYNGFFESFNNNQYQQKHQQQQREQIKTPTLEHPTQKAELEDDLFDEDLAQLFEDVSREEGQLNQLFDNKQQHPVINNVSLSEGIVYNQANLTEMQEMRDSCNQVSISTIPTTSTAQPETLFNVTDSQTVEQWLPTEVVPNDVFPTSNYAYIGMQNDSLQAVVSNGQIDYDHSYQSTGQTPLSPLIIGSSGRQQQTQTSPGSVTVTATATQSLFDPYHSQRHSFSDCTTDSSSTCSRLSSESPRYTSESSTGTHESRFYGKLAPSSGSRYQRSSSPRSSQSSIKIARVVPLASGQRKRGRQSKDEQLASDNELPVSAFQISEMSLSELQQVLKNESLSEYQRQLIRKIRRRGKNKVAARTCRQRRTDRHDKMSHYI", "assay_type": "functional"}, "[14]": {"target": "Intestinal-type alkaline phosphatase (Mus musculus, UniProt P24822)", "sequence (P24822 whole entry)": "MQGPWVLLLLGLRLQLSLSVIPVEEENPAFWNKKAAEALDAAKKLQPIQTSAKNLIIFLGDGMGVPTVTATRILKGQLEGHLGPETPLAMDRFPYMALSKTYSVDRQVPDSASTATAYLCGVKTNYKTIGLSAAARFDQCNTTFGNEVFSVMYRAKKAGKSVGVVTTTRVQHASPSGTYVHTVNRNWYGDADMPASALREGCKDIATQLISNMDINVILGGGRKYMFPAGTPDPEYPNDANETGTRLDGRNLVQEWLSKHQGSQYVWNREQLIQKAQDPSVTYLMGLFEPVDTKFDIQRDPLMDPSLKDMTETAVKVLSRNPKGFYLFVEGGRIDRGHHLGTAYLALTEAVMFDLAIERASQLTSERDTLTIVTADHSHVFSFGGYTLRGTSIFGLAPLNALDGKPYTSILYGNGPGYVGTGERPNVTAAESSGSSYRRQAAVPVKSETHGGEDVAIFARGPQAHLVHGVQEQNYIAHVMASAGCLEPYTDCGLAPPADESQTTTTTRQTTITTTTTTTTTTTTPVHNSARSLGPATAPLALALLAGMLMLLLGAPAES", "assay": "PubChem AID 488785", "assay_type": "functional"}, "[15]": {"target": "FAD-linked sulfhydryl oxidase ALR (Homo sapiens, UniProt P55789)", "sequence (P55789 whole entry)": "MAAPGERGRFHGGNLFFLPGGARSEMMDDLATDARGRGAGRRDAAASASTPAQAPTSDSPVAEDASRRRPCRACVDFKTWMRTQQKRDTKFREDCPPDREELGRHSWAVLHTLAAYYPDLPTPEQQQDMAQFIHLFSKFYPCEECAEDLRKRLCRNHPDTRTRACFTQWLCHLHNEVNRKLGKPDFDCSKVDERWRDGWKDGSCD", "assay": "ALR-catalysed DTT oxidation blockers – biochemical, H2O2 detection, luminescence, cherry-pick, dose response (AID 493248)"}, "[16]": {"target": "T5, Alkaline phosphatase, tissue-nonspecific isozyme (Homo sapiens, UniProt P05186)", "T5 sequence (P05186 whole entry)": "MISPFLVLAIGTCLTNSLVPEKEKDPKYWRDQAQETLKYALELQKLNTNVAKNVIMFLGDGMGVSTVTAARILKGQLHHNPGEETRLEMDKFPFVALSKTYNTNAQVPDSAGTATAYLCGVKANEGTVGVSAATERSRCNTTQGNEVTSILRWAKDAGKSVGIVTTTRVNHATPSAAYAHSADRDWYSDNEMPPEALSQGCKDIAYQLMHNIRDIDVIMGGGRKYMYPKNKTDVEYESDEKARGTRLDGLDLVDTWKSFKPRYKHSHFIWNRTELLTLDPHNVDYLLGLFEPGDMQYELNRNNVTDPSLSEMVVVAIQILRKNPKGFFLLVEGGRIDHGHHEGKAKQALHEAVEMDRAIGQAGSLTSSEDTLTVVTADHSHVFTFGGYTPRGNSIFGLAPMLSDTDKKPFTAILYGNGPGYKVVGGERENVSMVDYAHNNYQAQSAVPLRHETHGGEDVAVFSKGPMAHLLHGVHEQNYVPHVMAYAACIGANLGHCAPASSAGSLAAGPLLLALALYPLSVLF", "assay": "TNAP enzyme inhibition by screening hits, dose response, selectivity assay for mouse IAP inhibitor project, biochemical, human TNAP, uHTS hits (AID 488906)", "assay_type": "functional"}, "[17]": {"target": "Intestinal-type alkaline phosphatase (Homo sapiens, UniProt P09923)", "sequence (P09923 whole entry)": "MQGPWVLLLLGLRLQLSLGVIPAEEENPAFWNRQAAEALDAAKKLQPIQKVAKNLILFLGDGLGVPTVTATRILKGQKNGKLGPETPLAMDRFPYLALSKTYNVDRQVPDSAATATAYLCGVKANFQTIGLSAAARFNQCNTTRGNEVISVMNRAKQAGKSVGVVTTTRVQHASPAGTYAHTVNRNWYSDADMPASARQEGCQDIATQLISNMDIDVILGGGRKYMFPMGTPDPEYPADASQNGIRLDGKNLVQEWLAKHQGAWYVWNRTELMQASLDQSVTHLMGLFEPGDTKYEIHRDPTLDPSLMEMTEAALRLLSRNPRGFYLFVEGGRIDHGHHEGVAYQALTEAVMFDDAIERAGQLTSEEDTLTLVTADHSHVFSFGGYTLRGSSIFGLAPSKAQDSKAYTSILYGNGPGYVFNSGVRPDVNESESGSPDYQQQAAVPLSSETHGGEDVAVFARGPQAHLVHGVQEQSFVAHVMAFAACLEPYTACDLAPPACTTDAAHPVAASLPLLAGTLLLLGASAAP", "assay": "inhibition of human intestinal alkaline phosphatase – biochemical, dose response (AID 488876)", "assay_type": "functional"}, "[18]": {"assay": "Luminescence Cell-Based Dose Retest to Confirm Inhibitors of Cancer Stem Cells. [Related pubchem assays (depositor defined):AID2717, AID2721]", "assay_type": "functional", "conditions": "Homo sapiens"}, "[19]": {"assay": "cells", "assay_type": "functional"}}, "note": "Activity calls are given as the source filed them."}
{"smiles": "CN1CCN(CCC=C2c3ccccc3Sc3ccc(S(=O)(=O)N(C)C)cc32)CC1", "values": [{"measurement": "IC50", "setting": "[1]", "result": "> 25 µM (active)"}, {"measurement": "CC50", "setting": "[2]", "result": "19.7 µM (active)"}]}
{"smiles": "COC(=O)c1nc(N)sc1-c1ccc(Cl)c(Cl)c1", "values": [{"measurement": "AC50", "setting": "[3]", "result": "21.3 µM (active)"}, {"measurement": "AC50", "setting": "[4]", "result": "11.6 µM (active)"}]}
{"smiles": "O=C(Cn1cc(C(=O)c2ccco2)c2ccccc21)Nc1ccccc1F", "values": [{"measurement": "IC50", "setting": "[5]", "result": "1.79 µM (active)"}, {"measurement": "IC50", "setting": "[6]", "result": "1.33 µM (active)"}, {"measurement": "AC50", "setting": "[7]", "result": "2.6 µM (active)"}, {"measurement": "AC50", "setting": "[8]", "result": "4.67 µM (active)"}, {"measurement": "IC50", "setting": "[9]", "result": "4.08 µM (active)"}]}
{"smiles": "COc1cc(CN2CCN(CCCc3ccccc3)C(CCO)C2)cc(OC)c1O", "note": "(stereo unspecified)", "values": [{"measurement": "IC50", "setting": "[10]", "result": "58.7 µM (inactive)"}]}
{"smiles": "COc1ccc(Nc2nnc(SCC(=O)/C=C3/N(C)c4ccccc4C3(C)C)s2)cc1", "values": [{"measurement": "IC50", "setting": "[11]", "result": "21.1 µM (active)"}, {"measurement": "CC50", "setting": "[12]", "result": "7.33 µM (active)"}, {"measurement": "IC50", "setting": "[5]", "result": "1.64 µM (active)"}, {"measurement": "IC50", "setting": "[6]", "result": "1.72 µM (active)"}, {"measurement": "IC50", "setting": "[13]", "result": "> 100 µM (inactive)"}]}
{"smiles": "Cc1cc(O)c(Sc2nc[nH]n2)cc1NS(=O)(=O)c1ccc(Cl)cc1", "values": [{"measurement": "IC50", "setting": "[14]", "result": "5.84 µM (active)"}, {"measurement": "AC50", "setting": "[15]", "result": "1.52 µM (active)"}, {"measurement": "IC50", "setting": "[16]", "result": "92.6 µM (active)"}, {"measurement": "IC50", "setting": "[17]", "result": "> 100 µM (inactive)"}]}
{"smiles": "Cc1ccc(/C=C2\\SC(=S)N(CCC(=O)N3CCOCC3)C2=O)cc1", "values": [{"measurement": "IC50", "setting": "[1]", "result": "> 25 µM (active)"}, {"measurement": "CC50", "setting": "[2]", "result": "14.5 µM (active)"}]}
{"smiles": "O=C(NC1CCCCC1)c1ccc2ccccc2c1O", "values": [{"measurement": "IC50", "setting": "[1]", "result": "11.3 µM (active)"}]}
{"smiles": "C#CCOCCOCCOCCNc1nc(N2CCN(C(=O)CCCCCCCCCCNC(=O)Cn3cc(C[C@@H](C)O)nn3)CC2)nc(N2CCN(C(=O)CCCCCCCCCCNC(=O)[C@@H](CCSC)n3cc(CCO)nn3)CC2)n1", "values": [{"measurement": "IC50", "setting": "[14]", "result": "27.6 µM (active)"}, {"measurement": "IC50", "setting": "[16]", "result": "27.3 µM (active)"}, {"measurement": "IC50", "setting": "[17]", "result": "36.3 µM (active)"}]}
{"smiles": "C#CCOCCOCCOCCNc1nc(N2CCN(C(=O)CCCCCCCCCCNC(=O)Cn3cc(C[C@@H](C)O)nn3)CC2)nc(N2CCN(C(=O)CCCCCCCCCCNC(=O)[C@H](CCCCN)n3cc(C[C@@H](C)CC)nn3)CC2)n1", "values": [{"measurement": "AC50", "setting": "[18]", "result": "7.11 µM (active)"}, {"measurement": "IC50", "setting": "[14]", "result": "4.71 µM (active)"}, {"measurement": "IC50", "setting": "[16]", "result": "95.5 µM (active)"}, {"measurement": "IC50", "setting": "[17]", "result": "> 100 µM (inactive)"}]}
{"smiles": "Cc1nnc(N/N=C/c2ccc(-c3ccccc3F)o2)n1N", "values": [{"measurement": "IC50", "setting": "[10]", "result": "> 80 µM (inactive)"}, {"measurement": "IC50", "setting": "[19]", "result": "22.3 µM (active)"}]}
